# In paper PMC10138721, “Investigation of the Compatibility between Warheads and Peptidomimetic Sequences of Protease Inhibitors—A Comprehensive Reactivity and Selectivity Study” (International Journal of Molecular Sciences, 2023):
# Entries after “also recorded” stand apart in the source; their conditions may differ. Like-named read-outs stand apart in the source and are kept apart here.
# Experiments:
# human cathepsin S (CatS) = target: T1, human cathepsin S (CatS) (Homo sapiens, UniProt P25774); assay: Fluorometric inhibition assay, cathepsin S; format: biochemical; conditions: for kinact: read-out: kinact, CatS
# T1 construct: purchased Sigma Aldrich
# T1 sequence (P25774 115-331): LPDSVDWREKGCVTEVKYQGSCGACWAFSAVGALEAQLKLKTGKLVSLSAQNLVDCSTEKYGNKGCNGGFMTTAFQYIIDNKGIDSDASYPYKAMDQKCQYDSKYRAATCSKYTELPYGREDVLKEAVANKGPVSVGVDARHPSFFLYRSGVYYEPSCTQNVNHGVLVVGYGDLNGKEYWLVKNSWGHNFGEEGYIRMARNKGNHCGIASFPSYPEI
# rhodesain = rhodesain (Trypanosoma brucei rhodesiense, UniProt Q95PM0); assay: Fluorometric inhibition assay, rhodesain; format: biochemical; conditions: for kinact: read-out: kinact, Rhodesain
# Sequence of rhodesain (Q95PM0 entry or part of it): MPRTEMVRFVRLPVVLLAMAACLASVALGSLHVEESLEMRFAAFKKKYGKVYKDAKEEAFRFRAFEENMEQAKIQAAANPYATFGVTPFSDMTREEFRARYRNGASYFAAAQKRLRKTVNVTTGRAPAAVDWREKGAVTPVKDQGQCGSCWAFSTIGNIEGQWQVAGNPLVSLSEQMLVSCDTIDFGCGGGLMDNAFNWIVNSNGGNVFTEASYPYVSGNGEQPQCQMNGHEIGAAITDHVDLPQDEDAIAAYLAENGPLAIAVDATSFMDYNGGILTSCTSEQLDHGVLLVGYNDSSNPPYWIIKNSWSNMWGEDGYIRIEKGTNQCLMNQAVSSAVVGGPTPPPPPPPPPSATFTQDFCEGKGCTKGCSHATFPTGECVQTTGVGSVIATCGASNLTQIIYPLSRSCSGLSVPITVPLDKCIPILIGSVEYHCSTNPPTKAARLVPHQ
# [1] = target: SARS-CoV-2 main protease (M^pro) (Severe acute respiratory syndrome coronavirus 2, UniProt P0DTD1); assay: Fluorometric (FRET) inhibition assay, SARS-CoV-2 M^pro; format: biochemical; conditions: for activity against M^pro, in words: initial screen at 20 µM, cut-off 80% inhibition
# [2] = Reactivity test of warhead probes with PhEtSH without base (NMR/LC-MS); format: physicochemical; conditions: non-basic conditions; for reactivity with PhEtSH (protonated thiol), in words: DMSO-d6, up to 240 min
# Source text: (§1) To investigate the reactivity between the different warheads towards the three classes of proteases (serine, threonine and cysteine proteases), their behavior in model systems under the same reaction conditions (solvent, nucleophile and base) using either NMR or LC-MS analysis was investigated. We used reactivity probes with a Boc-L-Leu-(warhead) sequence. Leucin was chosen as a P1 amino acid to minimize influences of the side chain and due to synthetic accessibility. 2-Phenylethanethiol was used as a model nucleophile to mimic the thiol moiety of cysteine proteases, and sodium ethoxide was used as a serine/threonine replacement. DMSO-d6 was used as solvent. Under these conditions, the nucleophile is deprotonated, simulating the activated serine or threonine in the catalytic triad of serine and threonine proteases, while ethanol as protonated alcohol species turned out to be unreactive in preliminary test reactions. The reactivity tests using 2-phenylethanthiol were carried out in the presence and absence of triethylamine as a base. This allowed for a reactivity comparison of the warheads towards protonated and deprotonated nucleophilic thiol species. Generating a deprotonated thiol species in the presence of triethylamine simulates the deprotonated cysteine in the catalytic dyad of cysteine proteases. Scheme 8 illustrates the reaction of the reactivity assay with both model nucleophiles and the vinyl sulfone moiety 109 as an example.
# (§2) The reactivity tests of all Michael acceptors, 109, 110, 111 and 112, the α-ketobenzothiazole 115 and nitrile 117 were investigated using an NMR-based analysis method, while the β-lactam 108 reactivity was investigated via LC-MS, due to its lack of proton signals, which could be used for evaluation of the reactivity in the ^1H-NMR studies, and the irreversible reaction mechanism, which allowed the LC-MS analysis. […] Formation of the expected adducts with the nitrile 117 (PhEtSH/PhEtS^–/EtONa), the α-ketobenzothiazole 115 (PhEtSH/PhEtS^–) and the nitroalkene 111 (EtONa) could not be observed. This may have been due to the covalent reversible reaction mechanism of the nitrile and α-ketobenzothiazole and the overall difficult ionization of the specific compounds by an electron spray ionization mass spectrometer.
# (§3) Method A (NMR): ^1H-NMR spectra were recorded for the respective warhead and nucleophile mixture, before the addition of the nucleophile (0 min) and after 5, 30, 60, 120 and 240 min reaction time. For quantification, the double bond-signals (doublet/doublet of doublets, around 7.4–6.7 ppm) of the Michael acceptors were integrated relative to 1,3-dioxolane as an internal standard. The acetal CH2 signal of the internal standard at 5.3 ppm was used as a reference.
# (§4) The α-ketobenzothiazole 115 and nitrile 117 were similarly analyzed by ^13C-NMR. Therefore, the corresponding ^13C-leucin derivates were synthesized (Scheme 7). Quantifications of the reactions were carried out by using the integral of the carbonyl carbon atom signal at 195 ppm for the α-ketobenzothiazole and 120 ppm for the nitrile moiety. The reference signal of DMSO-d6 was set to 39.52 ppm.
# (§5) Method B (LC-MS): The reactivity of the β-lactam test compound 108 with the nucleophiles was investigated using an LC-MS-based method. To quantify the conversion, the AUCs were determined at 254 nm. In Figure 3, the UV spectra of the test reaction of the β-lactam 108 with EtONa are shown exemplarily.
# (§6) The β-lactam 108 (0.07 mmol, 1eq) was solved in DMSO-d6 (0.5 mL). The reaction was measured in time intervals before (0 min), 5, 30, 60, 120 and 240 mins after the addition of the corresponding nucleophile (PhEtSH/EtONa, 2 eq) in presence of Et3N (2 eq) or not. In case of PhEtSH as the nucleophile the reaction got quenched by pouring 10 µL of the reaction mixture into a solution of 25 mM TRIS (pH 7.00) and 27 mM maleimide in a 1:1 mixture of acetonitrile/H2O (990 µL). For the reaction with EtONa as the nucleophile, the reaction solution […]
# [3] = Reactivity test of warhead probes with PhEtSH + Et3N (NMR/LC-MS); format: physicochemical; conditions: for reactivity with PhEtSH + Et3N (deprotonated thiol), in words: DMSO-d6, up to 240 min
# Source text: as §1, §2, §3, §4, §5, §6
# [4] = Reactivity test of warhead probes with EtONa (NMR/LC-MS); format: physicochemical
# Source text: as §1, §2, §3, §4, §5, §6
# [5] = Table S1; a) calculated from IC50 with Cheng–Prusoff, irreversible inhibitors from kobs fits, n.a. = not active at 20 µM, * unstable towards DTT, read-out: Ki, CatS
# [6] = Table S1, irreversible inhibitors
compound,measurement,setting,value
CC(=O)NCC(=O)NC(C(=O)N[C@@H](C)C(=O)N[C@H](/C=C(\F)S(=O)(=O)c1ccccc1)CCCNC(=N)N)[C@H](C)O (stereo partly shown) [compound 107],"activity against CatS, in words",human cathepsin S (CatS),not active at 20 µM
same,"activity against rhodesain, in words",rhodesain,inactive
O=C(NC(C=C[N+](=O)[O-])COCc1ccccc1)C(CC1CCCCC1)NC(=O)N1CCOCC1 (stereo not shown) [compound 49],Ki,"human cathepsin S (CatS); Ki, CatS",12 ± 1 nM
same,Ki,"rhodesain; pKi, Rhodesain inhibition",2 nM
O=C(NC(C=CS(=O)(=O)c1ccccc1)COCc1ccccc1)C(CC1CCCCC1)NC(=O)N1CCOCC1 (stereo not shown) [compound 35],Ki,"human cathepsin S (CatS); pKi, Cathepsin S inhibition",3.16 nM
same,kinact,human cathepsin S (CatS),0.0202 ± 0.0006 s⁻¹
same,Ki,"rhodesain; Ki, Rhodesain",22 ± 2 nM
same,kinact,rhodesain,0.006 ± 0.0004 s⁻¹
CC(=O)NCC(=O)NC(C(=O)N[C@@H](C)C(=O)N[C@H](/C=C/S(=O)(=O)c1ccccc1)CCCNC(=N)N)[C@H](C)O (stereo partly shown) [compound 106],"activity against CatS, in words",human cathepsin S (CatS),not active at 20 µM
same,"activity against rhodesain, in words",rhodesain,inactive
N#C[C@H](CCc1ccccc1)NC(=O)[C@H](Cc1ccccc1)NC(=O)OCc1ccccc1 [compound 25],Ki,"human cathepsin S (CatS); Ki, CatS",136 ± 12 nM
same,Ki,"rhodesain; Ki, Rhodesain",88 ± 17.4 nM
COc1cccc2[nH]c(C(=O)N[C@@H](CC(C)C)C(=O)N[C@H](/C=C/[N+](=O)[O-])C[C@@H]3CCNC3=O)cc12 [compound 88],Ki,human cathepsin S (CatS); [5],388 ± 277 nM
same,Ki,[1],2200 ± 184 nM
same,"activity against M^pro, in words",[1],displayed inhibitory activity
same,Ki,"rhodesain; calculated from Ki, –log10(Ki/M), read-out: pKi, Rhodesain inhibition (converted)",2 nM
COc1cccc2[nH]c(C(=O)N[C@@H](CC(C)C)C(=O)N[C@H](/C=C/S(=O)(=O)c3ccccc3)C[C@@H]3CCNC3=O)cc12 [compound 93],Ki,human cathepsin S (CatS); [5],330 ± 65 nM
same,kinact,human cathepsin S (CatS); [6],0.0087 ± 0.0001 s⁻¹
same,Ki,"human cathepsin S (CatS); calculated from Ki, –log10(Ki/M), read-out: pKi, Cathepsin S inhibition (converted)",398 nM
same,Ki,[1],3530 ± 1110 nM
same,"activity against M^pro, in words",[1],displayed inhibitory activity
same,kinact,"[1]; read-out: kinact, MPro",0.0137 ± 0.0061 s⁻¹
same,Ki,"rhodesain; Table S1; a) calculated from IC50 with Cheng–Prusoff, irreversible inhibitors from kobs fits, n.a. = not active at 20 µM, read-out: Ki, Rhodesain",2000 ± 604 nM
same,kinact,rhodesain; [6],0.029 ± 0.008 s⁻¹
O=C(NC1CN(c2ccccc2)C1=O)C(COCc1ccccc1)NC(=O)C(CC1CCCCC1)NC(=O)N1CCOCC1 (stereo not shown) [compound 45],Ki,"human cathepsin S (CatS); Ki, CatS",860 ± 130 nM
same,kinact,human cathepsin S (CatS),0.00046 ± 2e-05 s⁻¹
N#CC(COCc1ccccc1)NC(=O)C(CC1CCCCC1)NC(=O)N1CCOCC1 (stereo not shown) [compound 30],Ki,"rhodesain; Ki, Rhodesain",21 ± 2 nM
O=C(NC(C=C(F)S(=O)(=O)c1ccccc1)COCc1ccccc1)C(CC1CCCCC1)NC(=O)N1CCOCC1 (stereo not shown) [compound 36],Ki,"human cathepsin S (CatS); Ki, CatS",3210 ± 612 nM
CC(C)CC(NC(=O)OC(C)(C)C)[13C](=O)c1nc2ccccc2s1 (stereo not shown) [compound 115],conversion with PhEtSH,"[2]; DMSO-d6, after 240 min",18%
same,"reactivity with PhEtSH (protonated thiol), in words",[2],did indeed react
same,conversion with PhEtSH + Et3N,"[3]; DMSO-d6, time not stated",around 30%
same,"reactivity with PhEtSH + Et3N (deprotonated thiol), in words",[3],strong reactivity
same,maximum conversion with EtONa,"[4]; DMSO-d6, maximum reached after 60 min",37%
same,"reactivity with EtONa, in words","[4]; DMSO-d6, up to 240 min",strong reactivity
CC(C)C[C@@H]([13C]#N)NC(=O)OC(C)(C)C [compound 117],conversion with PhEtSH,"[2]; DMSO-d6, time not stated",7%
same,"reactivity with PhEtSH (protonated thiol), in words",[2],did indeed react
same,"reactivity with PhEtSH + Et3N (deprotonated thiol), in words",[3],Every warhead except the β-lactam 108 and the nitrile 117 reacted; also recorded: no reaction
same,conversion with EtONa,"[4]; DMSO-d6, at 5 min",10%
CCOC(=O)C=CC(=O)C(COCc1ccccc1)NC(=O)C(CC1CCCCC1)NC(=O)N1CCOCC1 (stereo not shown) [compound 40],Ki,"human cathepsin S (CatS); Ki, CatS",22 ± 4 nM
same,kinact,human cathepsin S (CatS),0.0023 ± 7e-05 s⁻¹
same,Ki,"rhodesain; Ki, Rhodesain",35 ± 9 nM
same,kinact,rhodesain,0.003 ± 0.0001 s⁻¹
O=C(N[C@@H](Cc1ccccc1)C(=O)N[C@@H](CCc1ccccc1)C(=O)c1nc2ccccc2s1)OCc1ccccc1 [compound 18],"activity against rhodesain, in words",rhodesain,inactive at 20 µM
